Data: patent publication US12319648B2, “Fluorinated phenylacetic acid derivatives in a weed control method” (SYNGENTA CROP PROTECTION AG, priority 2019, dated 2025)

Key:
Format in all cases: in vivo
[1] = tested on: Ipomoea hederacea (IPOHE); assay: Pre-emergence herbicidal glasshouse test; details: pre-emergence, 250 g/ha, 13 days after application
Experimental: (§1) Seeds of a variety of test species are shown in standard soil in pots Amaranthus retoflexus (AMARE), Ipomoea hederacea (IPOHE), Solanum nigrum (SOLNI), Lolium perenne (LOLPE). Echinochloa crus-galli (ECHCG), Setaria faberi (SETFA)). After cultivation for one day (pre-emergence) or after 8 days cultivation (post-emergence) under controlled conditions in a glasshouse (at 24/16° C., day/night; 14 hours light; 65% humidity), the plants are sprayed with an aqueous spray solution derived from the formulation of the technical active ingredient in acetone/water (50:50) solution containing 0.5% Tween 20 (polyoxyethylene sorbitan monolaurate, CAS RN 9005-64-5). Compounds are applied at 250 g/ha unless otherwise stated. The test plants are then grown in a glasshouse under controlled conditions in a glasshouse (at 24/16° C., day/night; 14 hours light; 65% humidity) and watered twice daily. After 13 days for pre and post-emergence, the test is evaluated for the percentage damage caused to the plant. The biological activities are shown in the following table on a five-point scale (5=81-100%; 4=61-80%; 3=41-60%; 2=21-40%; 1=0-20%).
(§2) Using the experimental conditions outlined above, a further test is conducted to compare the herbicidal properties of the difluro containing compound (1.014) with a representative compound (C1) referred to in GB901553. The compounds are applied at 1000 g/ha and 500 g/ha. The test is evaluated for the percentage damage caused to the plant (% phytotoxicity).

Setaria faberi (SETFA) [2] = assay: Pre-emergence herbicidal glasshouse test; details: pre-emergence, 250 g/ha, 13 days after application
Experimental: as §1, §2

Solanum nigrum (SOLNI) [3] = assay: Pre-emergence herbicidal glasshouse test; details: pre-emergence, 250 g/ha, 13 days after application
Experimental: as §1, §2

[4] = tested on: Amaranthus retoflexus (AMARE); assay: Pre-emergence herbicidal glasshouse test; details: pre-emergence, 250 g/ha, 13 days after application
Experimental: as §1, §2

[5] = tested on: Echinochloa crus-galli (ECHCG); assay: Pre-emergence herbicidal glasshouse test; details: pre-emergence, 250 g/ha, 13 days after application
Experimental: as §1, §2

Lolium perenne (LOLPE) [6] = assay: Pre-emergence herbicidal glasshouse test; details: pre-emergence, 250 g/ha, 13 days after application
Experimental: as §1, §2

[7] = tested on: Ipomoea hederacea (IPOHE); assay: Post-emergence herbicidal glasshouse test; details: post-emergence, 250 g/ha, 13 days after application
Experimental: as §1, §2

Setaria faberi (SETFA) [8] = assay: Post-emergence herbicidal glasshouse test; details: post-emergence, 250 g/ha, 13 days after application
Experimental: as §1, §2

Solanum nigrum (SOLNI) [9] = assay: Post-emergence herbicidal glasshouse test; details: post-emergence, 250 g/ha, 13 days after application
Experimental: as §1, §2

[10] = tested on: Amaranthus retoflexus (AMARE); assay: Post-emergence herbicidal glasshouse test; details: post-emergence, 250 g/ha, 13 days after application
Experimental: as §1, §2

[11] = tested on: Echinochloa crus-galli (ECHCG); assay: Post-emergence herbicidal glasshouse test; details: post-emergence, 250 g/ha, 13 days after application
Experimental: as §1, §2

Lolium perenne (LOLPE) [12] = assay: Post-emergence herbicidal glasshouse test; details: post-emergence, 250 g/ha, 13 days after application
Experimental: as §1, §2

Compound | percentage damage caused to the plant, five-point scale, IPOHE [1] | percentage damage caused to the plant, five-point scale, SETFA (Setaria faberi (SETFA) [2]) | percentage damage caused to the plant, five-point scale, SOLNI (Solanum nigrum (SOLNI) [3]) | percentage damage caused to the plant, five-point scale, AMARE [4] | percentage damage caused to the plant, five-point scale, ECHCG [5] | percentage damage caused to the plant, five-point scale, LOLPE (Lolium perenne (LOLPE) [6]) | percentage damage caused to the plant, five-point scale, IPOHE [7] | percentage damage caused to the plant, five-point scale, SETFA (Setaria faberi (SETFA) [8]) | percentage damage caused to the plant, five-point scale, SOLNI (Solanum nigrum (SOLNI) [9]) | percentage damage caused to the plant, five-point scale, AMARE [10] | percentage damage caused to the plant, five-point scale, ECHCG [11] | percentage damage caused to the plant, five-point scale, LOLPE (Lolium perenne (LOLPE) [12])
O=C(O)C(F)(F)c1c(Cl)ccc(Cl)c1Cl [Compound 1.001] | 3 (3=41-60%) | 1 (1=0-20%) | 1 (1=0-20%) | 5 (5=81-100%) | 1 (1=0-20%) | 1 (1=0-20%) | 4 (4=61-80%) | 3 (3=41-60%) | 4 (4=61-80%) | 5 (5=81-100%) | 1 (1=0-20%) | 1 (1=0-20%)
COC(=O)C(F)(F)c1c(Cl)ccc(Cl)c1Cl [Compound 1.002] | 1 (1=0-20%) | 1 (1=0-20%) | 1 (1=0-20%) | 4 (4=61-80%) | 1 (1=0-20%) | 1 (1=0-20%) | 2 (2=21-40%) | 1 (1=0-20%) | 4 (4=61-80%) | 4 (4=61-80%) | 1 (1=0-20%) | 1 (1=0-20%)
COC(=O)C(F)(F)c1ccc(Cl)cc1Cl [Compound 1.003] | 3 (3=41-60%) | 1 (1=0-20%) | 2 (2=21-40%) | 4 (4=61-80%) | 1 (1=0-20%) | 1 (1=0-20%) | 3 (3=41-60%) | 1 (1=0-20%) | 3 (3=41-60%) | 3 (3=41-60%) | 1 (1=0-20%) | 1 (1=0-20%)
O=C(O)C(F)(F)c1ccc(Cl)cc1Cl [Compound 1.004] | 4 (4=61-80%) | 1 (1=0-20%) | 3 (3=41-60%) | 4 (4=61-80%) | 1 (1=0-20%) | 1 (1=0-20%) | 4 (4=61-80%) | 1 (1=0-20%) | 4 (4=61-80%) | 4 (4=61-80%) | 1 (1=0-20%) | 1 (1=0-20%)
O=C(O)C(F)(F)c1cc(Cl)cc(Cl)c1 [Compound 1.007] | 1 (1=0-20%) | 1 (1=0-20%) | 1 (1=0-20%) | 1 (1=0-20%) | 1 (1=0-20%) | 1 (1=0-20%) | 1 (1=0-20%) | 1 (1=0-20%) | 3 (3=41-60%) | 3 (3=41-60%) | 1 (1=0-20%) | 1 (1=0-20%)
O=C(O)C(F)(F)c1ccccc1Cl [Compound 1.011] | 4 (4=61-80%) | 2 (2=21-40%) | 4 (4=61-80%) | 5 (5=81-100%) | 1 (1=0-20%) | 1 (1=0-20%) | 3 (3=41-60%) | 1 (1=0-20%) | 5 (5=81-100%) | 5 (5=81-100%) | 1 (1=0-20%) | 1 (1=0-20%)
O=C(O)C(F)(F)c1cc(Cl)ccc1Cl [Compound 1.012] | 3 (3=41-60%) | 1 (1=0-20%) | 3 (3=41-60%) | 4 (4=61-80%) | 1 (1=0-20%) | 1 (1=0-20%) | 3 (3=41-60%) | 1 (1=0-20%) | 4 (4=61-80%) | 4 (4=61-80%) | 1 (1=0-20%) | 1 (1=0-20%)
O=C(O)C(F)(F)c1cccc(Cl)c1Cl [Compound 1.039] | 5 (5=81-100%) | 2 (2=21-40%) | – | – | 1 (1=0-20%) | 3 (3=41-60%) | 4 (4=61-80%) | 3 (3=41-60%) | 3 (3=41-60%) | 5 (5=81-100%) | 2 (2=21-40%) | 1 (1=0-20%)
O=C(O)C(F)(F)c1cccc(Cl)c1Cl [Compound 1.040] | 5 (5=81-100%) | 1 (1=0-20%) | – | – | 1 (1=0-20%) | 1 (1=0-20%) | 3 (3=41-60%) | 3 (3=41-60%) | 2 (2=21-40%) | 4 (4=61-80%) | 2 (2=21-40%) | 1 (1=0-20%)
